Article PMC12396409, “Screening and hit evaluation of a microbial metabolite library against the pathogenic Plasmodium falciparum and Toxoplasma gondii parasites” (International Journal for Parasitology: Drugs and Drug …, 2025)

Key:
[1] = system: P. falciparum 3D7 parasites; experiment: P. falciparum growth inhibition assay, 1-cycle (72 h treatment), SYBR DNA staining (library screen at 2 μg/mL and dose-response); assay type: cell-based, Plasmodium falciparum; conditions: for Pf_72h_%Growth_Rep1: replicate 1; for Pf_72h_%Growth_Rep2: replicate 2
[2] = system: P. falciparum 3D7 parasites; experiment: P. falciparum growth inhibition assay, 2-cycle (120 h treatment), delayed-death screen and dose-response; assay type: cell-based, Plasmodium falciparum; conditions: for Pf_120h_%Growth_Rep1: replicate 1; for Pf_120h_%Growth_Rep2: replicate 2
[3] = system: T. gondii RH strain (RH-Tub-eYFP) tachyzoites; experiment: microbe, parasite or virus in culture; assay type: cell-based, Toxoplasma gondii; conditions: 72 h; for Tg_72h_%Growth_Rep1: replicate 1; for Tg_72h_%Growth_Rep2: replicate 2
[4] = library screen at 2 μg/mL, 72 h, % growth
[5] = library screen at 2 μg/mL, 120 h, % growth
[6] = library screen at 2 μg/mL, % growth
[7] = P. falciparum, 72 h, screen at 2 μg/mL
[8] = P. falciparum, 120 h, screen at 2 μg/mL
[9] = P. falciparum 3D7, 72 h, library screen at 2 μg/mL, % growth
[10] = P. falciparum 3D7, 120 h, library screen at 2 μg/mL, % growth
[11] = T. gondii RH, library screen at 2 μg/mL, % growth
[12] = P. falciparum, 72 h, parasite screen 2 μg/mL, % growth
[13] = P. falciparum, 120 h, parasite screen 2 μg/mL, % growth
[14] = T. gondii, parasite screen 2 μg/mL, % growth

Molecule `CC(=O)N[C@H]1CCOC1=O` [Acetyl-L-homoserine lactone] has a Pf_72h_%Growth_Rep1 [1, 4] of 5.19%, a Pf_72h_%Growth_Rep2 [1, 4] of 20.05% and a Pf_120h_%Growth_Rep1 [2, 5] of 2.96%. For the same molecule, the Pf_120h_%Growth_Rep2 [2, 5] was 5.45%, the Tg_72h_%Growth_Rep1 [3, 6] was 88.39% and the Tg_72h_%Growth_Rep2 [3, 6] was 103.34%.
For `CC(=O)N[C@H]1[C@H](O[C@@H]2c3ccc(c(Cl)c3)Oc3cc4cc(c3O[C@@H]3O[C@H](CO)[C@@H](O)[C@H](O)[C@H]3NC(=O)CCCCCCCC(C)C)Oc3ccc(cc3Cl)C[C@H]3NC(=O)[C@H](N)c5ccc(O)c(c5)Oc5cc(O)cc(c5)[C@H](NC3=O)C(=O)N[C@H]4C(=O)N[C@H]3C(=O)N[C@@H]2C(=O)N[C@H](C(=O)O)c2cc(O)cc(O[C@H]4O[C@H](CO)[C@@H](O)[C@H](O)[C@@H]4O)c2-c2cc3ccc2O)O[C@H](CO)[C@@H](O)[C@@H]1O` [Teicoplanin A2-5], the Pf_72h_%Growth_Rep1 [1, 7] was 86.27%, the Pf_72h_%Growth_Rep2 [1, 7] was 115.48% and the Pf_120h_%Growth_Rep1 [2, 8] was 86.61%. The Pf_120h_%Growth_Rep2 [2, 8] was 122.81%, the Tg_72h_%Growth_Rep1 ([3]; T. gondii, screen at 2 μg/mL) was 105.42% and the Tg_72h_%Growth_Rep2 ([3]; T. gondii, screen at 2 μg/mL) was 91.45%.
Work on `C=C(C)[C@@H]1CC[C@]2(C)CC[C@]3(C)[C@H](CC[C@@H]4[C@@]5(C)CC[C@H](O)C(C)(C)[C@@H]5CC[C@]43C)[C@@H]12` [BIA-L1759] yielded a Pf_72h_%Growth_Rep1 [1, 9] of 81.82%, a Pf_72h_%Growth_Rep2 [1, 9] of 111.85% and a Pf_120h_%Growth_Rep1 [2, 10] of 99.08%. The Pf_120h_%Growth_Rep2 [2, 10] was 111.54%, the Tg_72h_%Growth_Rep1 [3, 11] was 110.92% and the Tg_72h_%Growth_Rep2 [3, 11] was 91.52%.
With `COc1ccc(C[C@H]2NC[C@H](O)[C@H]2OC(C)=O)cc1` [Anisomycin] the Pf_72h_%Growth_Rep1 [1, 4] was 2.13%, the Pf_72h_%Growth_Rep2 [1, 4] was 2.45% and the Pf_120h_%Growth_Rep1 [2, 5] was 9.82%. For the same molecule, the Pf_120h_%Growth_Rep2 [2, 5] was -15.33%, the Tg_72h_%Growth_Rep1 [3, 6] was 0.93% and the Tg_72h_%Growth_Rep2 [3, 6] was 1.73%.
`C=C/C(C)=C/[C@H](C)C(=O)C[C@H](O)CC1CC(=O)NC(=O)C1` [Streptimidone] showed a Pf_72h_%Growth_Rep1 [1, 12] of 21.69%, a Pf_72h_%Growth_Rep2 [1, 12] of 38.20% and a Pf_120h_%Growth_Rep1 [2, 13] of 72.22%. For the same molecule, the Pf_120h_%Growth_Rep2 [2, 13] was 22.01%, the Tg_72h_%Growth_Rep1 [3, 14] was 3.03% and the Tg_72h_%Growth_Rep2 [3, 14] was 2.79%.
Molecule `O=C1N[C@@H](Cc2ccc(O)cc2)C(=O)N2CCC[C@@H]12` [Cyclo(L-Pro-L-Tyr)] has a Pf_72h_%Growth_Rep1 [1, 7] of 91.38%, a Pf_72h_%Growth_Rep2 [1, 7] of 88.30% and a Pf_120h_%Growth_Rep1 [2, 8] of 89.64%. It also gave a Pf_120h_%Growth_Rep2 [2, 8] of 119.86%, a Tg_72h_%Growth_Rep1 ([3]; T. gondii, screen at 2 μg/mL) of 132.28% and a Tg_72h_%Growth_Rep2 ([3]; T. gondii, screen at 2 μg/mL) of 86.77%.
`C=C(C)[C@@H]1CC[C@]2(C(=O)OC)CC[C@]3(C)[C@H](CC[C@@H]4[C@@]5(C)CC[C@H](O)C(C)(C)[C@@H]5CC[C@]43C)[C@@H]12` [Betulinate, Methyl] showed a Pf_72h_%Growth_Rep1 [1, 4] of 96.31%, a Pf_72h_%Growth_Rep2 [1, 4] of 86.01% and a Pf_120h_%Growth_Rep1 [2, 5] of 150.46%. The Pf_120h_%Growth_Rep2 [2, 5] was 92.78%, the Tg_72h_%Growth_Rep1 [3, 6] was 84.95% and the Tg_72h_%Growth_Rep2 [3, 6] was 84.36%.
Work on `CO[C@H]1C[C@H](O[C@H]2[C@H](C)O[C@@H](O[C@@H]3/C(C)=C/C[C@@H]4C[C@@H](C[C@]5(C=C[C@H](C)[C@@H](C6CCCCC6)O5)O4)OC(=O)[C@@H]4C=C(C)[C@@H](O)[C@H]5OC/C(=C\C=C\[C@@H]3C)[C@]54O)C[C@@H]2OC)O[C@@H](C)[C@@H]1O` [Doramectin] yielded a Pf_72h_%Growth_Rep1 [1, 4] of 86.87%, a Pf_72h_%Growth_Rep2 [1, 4] of 79.49% and a Pf_120h_%Growth_Rep1 [2, 5] of 100.88%. For the same molecule, the Pf_120h_%Growth_Rep2 [2, 5] was 96.33%, the Tg_72h_%Growth_Rep1 [3, 6] was 127.97% and the Tg_72h_%Growth_Rep2 [3, 6] was 102.84%.
Work on `CCO[C@@H]1[C@@H](OC)[C@H](C)O[C@@H](O[C@@H]2C[C@H]3CC[C@@H]4[C@@H](C=C5C(=O)[C@H](C)[C@@H](O[C@H]6CC[C@H](N(C)C)[C@@H](C)O6)CCC[C@H](CC)OC(=O)C[C@H]54)[C@@H]3C2)[C@@H]1OC` [spinosyn J, 3'-Ethoxy-5,6-dihydro-] yielded a Pf_72h_%Growth_Rep1 [1, 12] of 5.68%, a Pf_72h_%Growth_Rep2 [1, 12] of 5.35% and a Pf_120h_%Growth_Rep1 [2, 13] of 7.21%. It also gave a Pf_120h_%Growth_Rep2 [2, 13] of 9.72%, a Tg_72h_%Growth_Rep1 [3, 14] of 73.90% and a Tg_72h_%Growth_Rep2 [3, 14] of 86.54%.
